The test system of assay [1] is pS6, IGF-IRβ, Akt, PRAS40, Raptor in Tsc2-sh neurons. Nature of the assay: Western blot of PI3K/Akt/mTORC1 signaling components in Tsc2-sh neurons. Format: cell-based, rat. An excerpt: Hsp90 is a molecular chaperone that protects its client proteins from degradation, and many of its substrates are oncogenic proteins (Neckers and Workman, Hsp90 molecular chaperone inhibitors: are we there yet?; Clin Cancer Res 18, 64-76 (2012)). Among these, insulin-growth factor-1 Receptor β (IGF-IRβ), Akt, and Raptor are components of the PI3K/mTOR pathway that have been identified as Hsp90 substrates in non-neuronal cells (Basso et al., Akt forms an intracellular complex with heat shock protein 90 (Hsp90) and Cdc37 and is destabilized by inhibitors of Hsp90 function; J Biol Chem 277, 39858-39866 (2002); Ohji et al., Suppression of the mTOR-raptor signaling pathway by the inhibitor of heat shock protein 90 geldanamycin; J Biochem 139, 129-135 (2006)). To test whether Hsp90 affects mTORC1 activity through regulation of IGF-IRβ, Akt, or Raptor in neurons, the expression of these potential client proteins were examined in Tsc2-knockdown neurons treated with vehicle or with a 7-point dose-response curve at a three-fold dilution of 17-AGG (assay endpoint DIV20).
To investigate whether Hsp90 could function as a chaperone of IGF-IRβ in neurons, wild-type neurons were treated with 17-AGG and then proteasomal degradation was inhibited using bortezomib (BTZ). As expected, Hsp90 inhibition led to reduced IGF-IRβ levels, and this reduction was prevented with BTZ. […] Without wishing to be bound by theory, it is likely that Hsp90 protects IGF-IRβ against proteasomal degradation. To test whether IGF-IRβ protein stability and signaling may represent a potential mechanism by which Hsp90 inhibition reduces mTORC1 activity, IGF-IRβ activation was assessed by autophosphorylation at Tyr1135/1136. Consistent with mTOR-dependent negative feedback on the RTK/Akt pathway (Zhang et al., S6K1 regulates GSK3 under conditions of mTOR-dependent feedback inhibition of Akt; Molecular cell 24, 185-197 (2006)), IGF-IRβ phosphorylation was reduced in the vehicle-treated Tsc2-sh neurons compared to controls (FIGS. 3G, J). […] (FIGS. 3G, J).
Hippocampi and cortexes from 18-day-old rat embryos (Charles River CD1) were isolated under the microscope and collected in Hank's Balanced Salt Solution containing 10 mM MgCl2, 1 mM kynurenic acid, 10 mM HEPES and penicillin/streptomycin. After 5 min dissociation at 37° C. in 30 U/ml of papain, neurons were mechanically triturated and plated in Neurobasal (NB) medium containing B27 supplement, 2 mM L-glutamine, penicillin/streptomycin and primocin (NB/B27). Biochemical analysis was performed on cortical cultures plated at 1×10^6 cells/well onto six-well plates. Immunofluorescent analysis was performed on hippocampal cultures plated at 20×10^3 cells/well onto 96-well plates. All plates were coated with 20 μg/ml poly-D-lysine (PDL).
Protein extracts were lysed in 1×SDS (22 mM Tris-HCl pH 6.8, 4% Glycerol, 0.8% SDS, 1.6% β-mercaptoethanol, bromphenol blue) sample buffer, heated to 95° C. for 5 min and stored frozen. Before being subjected to discontinuous gel electrophoresis, equal amounts of all protein lysates were verified by Coomassie gel staining. For immunoblotting, equal amounts of protein lysates were subjected to SDS-PAGE, transferred to Immobilon-P Millipore and incubated in LI-COR blocking solution at RT for 2 hrs. Primary and secondary antibodies were diluted in LI-COR blocking solution to the appropriate concentrations. LI-COR IRDye secondary antibodies were used. All images were acquired using the LI-COR Odyssey Classic imager and associated Image Studio Lite analysis software (version 5.2.5). Quantification of protein expression was performed by densitometry scans of immunoblots using LI-COR Odyssey imaging system.
Western blot quantifications were performed by protein normalization using GAPDH as loading control. Level of phosphorylated proteins was expressed as the ratio of phosphorylated/total level after GAPDH normalization. […]

Assay [2] deals with Hsp90 (panel of human cancer cell lines). The conditions noted are these: read-out: mean IC50 against Hsp90, Kelland et al. 1999; cited from earlier work.
The mark [3] stands for this setting: Tsc2-sh neurons, 7-point dose-response, assay endpoint DIV20.
Where [4] appears, read: Tsc2-sh neurons, 17-AGG dose of 4 μM, assay endpoint DIV20.
Setting [5] is: Tsc2-sh neurons, dose curve 24 hrs between DIV19-20.

SMILES strings stand for the structures.

Usually IC50 stands for the concentration at which inhibition is half-maximal. As for `C=CCNC1=C2C[C@@H](C)C[C@H](OC)[C@H](O)[C@@H](C)/C=C(\C)[C@H](OC(N)=O)[C@@H](OC)C=C/C=C(\C)C(=O)NC(=CC1=O)C2=O` [17-AGG, 3 S,5S,6R,7S,8E,10R,11S,12E,14E)-21-(allylamino)-6-hydroxy-5,11-dimethoxy-3,7,9,15-tetramethyl-16,20,22-trioxo-17-azabicyclo[16.3.1]docosa-8,12,14,18,21-pentaen-10-yl] carbamate], in assay [1] (setting [3]), the Akt levels entry is “no effect” and the Raptor levels result is “no effect”. In assay [1] (setting [4]), the pS6 phosphorylation entry is reported as “significantly reduced” and the “total IGF-IRβ protein level” value was “significantly reduced”. Also, in assay [1] (setting [5]), the “phosphorylation of Akt” value is given as “reduced” and the “phosphorylation of PRAS40” value is on record as “reduced”. The “phosphorylation of IGF-IRβ receptor (Tyr1135/1136)” value in assay [1] (Tsc2-sh neurons, dose curve, DIV19-20) is “further reduced”. Besides, in assay [1] (Tsc2 knockdown cultures at DIV13, four days of 17-AGG 5-450 nM), the mTORC1 activation entry was “without any effect”. In addition, the IC50 in assay [2] is […].
